Assay results from paper PMC3210919 (Biochemistry, 2011).

Legend:
[1] = tested on: wild-type RePC (pyruvate carboxylase from R. etli); assay: Pyruvate carboxylation activity, malate dehydrogenase coupled assay; format: biochemical, Rhizobium etli
[2] = tested on: PC from B. Thermodenitrificans; conditions: read-out: apparent Km for HCO3^−; presence of acetyl-CoA; ref [32]; cited from earlier work
wild-type RePC = wild-type RePC (Rhizobium etli, UniProt Q2K340); format: biochemical
sheep kidney PC = conditions: noncompetitive with respect to MgATP, full forward reaction; ref [22]; cited from earlier work
[3] = labelled substrate varied, others saturating, pH 7.5, 25° C, 0.25 mM acetyl-CoA
[4] = extrapolated to saturating phosphonoacetate

Km [1, 3] [mM]	kcat [1, 3] [s⁻¹]	Structure (SMILES)	Km [2] [mM]	type of inhibition with respect to MgATP [1]	Kii (intercept inhibition constant) ([1]; linear noncompetitive with respect to MgATP, eqn (9)) [mM]	fold lower Kii for MgADP phosphorylation than for pyruvate carboxylation (wild-type RePC) [fold]	fold lower Kis for MgADP phosphorylation than for pyruvate carboxylation (wild-type RePC) [fold]	type of inhibition with respect to carbamoyl phosphate (wild-type RePC)	V/Km at saturating phosphonoacetate, % of the uninhibited reaction (wild-type RePC; [4]) [%]	Vmax at saturating phosphonoacetate, % of the uninhibited reaction (wild-type RePC; [4]) [%]	Kii (intercept inhibition constant) (wild-type RePC; hyperbolic noncompetitive with respect to carbamoyl phosphate, eqn (10)) [mM]	Ki (sheep kidney PC) [µM]
10.8 ± 0.4	11.7 ± 0.333	O=C(O)O [HCO3^−]	16	–	–	–	–	–	–	–	–	–
–	–	O=C(O)CP(=O)(O)O [phosphonoacetate]	–	noncompetitive	18 ± 7	890	100	hyperbolic, noncompetitive inhibition	1.5	1	0.021 ± 0.001	500
